Values belong to the molecule of their own block, whether it stands above or below them.
Assays:
Format in all cases: ADME
[1] = molecular target: T1, Cytochrome P450 1A2 (Rattus norvegicus, UniProt P04799); assay: (§1) Mechanism based inhibition of rat cytochrome P450 CYP1A2 measured by zolmitriptan metabolism
T1 sequence (P04799 whole entry): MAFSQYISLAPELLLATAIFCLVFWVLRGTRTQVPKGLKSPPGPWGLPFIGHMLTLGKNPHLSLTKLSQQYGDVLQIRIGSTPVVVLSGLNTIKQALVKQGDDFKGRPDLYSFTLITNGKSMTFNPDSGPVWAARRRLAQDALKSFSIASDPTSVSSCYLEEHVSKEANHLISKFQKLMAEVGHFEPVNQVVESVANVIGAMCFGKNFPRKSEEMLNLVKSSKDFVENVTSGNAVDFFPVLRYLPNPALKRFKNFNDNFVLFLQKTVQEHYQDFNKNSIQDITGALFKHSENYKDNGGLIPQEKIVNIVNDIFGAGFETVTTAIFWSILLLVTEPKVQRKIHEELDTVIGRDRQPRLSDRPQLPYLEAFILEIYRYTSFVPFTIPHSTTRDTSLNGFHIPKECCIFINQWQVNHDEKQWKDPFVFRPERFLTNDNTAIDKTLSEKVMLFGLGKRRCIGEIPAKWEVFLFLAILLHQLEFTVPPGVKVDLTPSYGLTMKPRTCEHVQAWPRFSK

[2] = molecular target: T2, CYP1A2 (Rattus norvegicus, UniProt P04799); assay: as §1; conditions: rat, probe zolmitriptan (metabolism)
T2 sequence (P04799 whole entry): T1 sequence (P04799 whole entry)

[3] = molecular target: T3, CYP2B6 (Homo sapiens, UniProt P20813); assay: Mechanism based inhibition of human cytochrome P450 CYP2B6 measured by 7-EFC O-deethylation activity; conditions: probe 7-EFC (O-deethylation)
T3 sequence (P20813 whole entry): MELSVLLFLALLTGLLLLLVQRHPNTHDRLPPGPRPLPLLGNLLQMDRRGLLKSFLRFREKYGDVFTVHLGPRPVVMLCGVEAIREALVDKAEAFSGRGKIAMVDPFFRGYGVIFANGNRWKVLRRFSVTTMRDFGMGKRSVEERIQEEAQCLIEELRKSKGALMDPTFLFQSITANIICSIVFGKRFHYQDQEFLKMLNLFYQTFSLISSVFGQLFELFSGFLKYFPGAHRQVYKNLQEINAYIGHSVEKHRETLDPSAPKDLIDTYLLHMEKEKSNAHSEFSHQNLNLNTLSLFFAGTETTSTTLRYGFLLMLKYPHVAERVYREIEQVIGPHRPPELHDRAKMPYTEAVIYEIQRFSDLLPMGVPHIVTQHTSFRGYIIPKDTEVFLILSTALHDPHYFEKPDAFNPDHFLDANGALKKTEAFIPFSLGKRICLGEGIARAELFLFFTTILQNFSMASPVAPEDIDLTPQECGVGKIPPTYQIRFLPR

[4] = molecular target: CYP3A4 (Homo sapiens, UniProt P08684); assay: (§2) Mechanism based inhibition of human cytochrome P450 CYP3A4 measured by 7BFC O-debenzylation; conditions: human, probe 7BFC (O-debenzylation)
Chain of CYP3A4 (P08684 whole entry): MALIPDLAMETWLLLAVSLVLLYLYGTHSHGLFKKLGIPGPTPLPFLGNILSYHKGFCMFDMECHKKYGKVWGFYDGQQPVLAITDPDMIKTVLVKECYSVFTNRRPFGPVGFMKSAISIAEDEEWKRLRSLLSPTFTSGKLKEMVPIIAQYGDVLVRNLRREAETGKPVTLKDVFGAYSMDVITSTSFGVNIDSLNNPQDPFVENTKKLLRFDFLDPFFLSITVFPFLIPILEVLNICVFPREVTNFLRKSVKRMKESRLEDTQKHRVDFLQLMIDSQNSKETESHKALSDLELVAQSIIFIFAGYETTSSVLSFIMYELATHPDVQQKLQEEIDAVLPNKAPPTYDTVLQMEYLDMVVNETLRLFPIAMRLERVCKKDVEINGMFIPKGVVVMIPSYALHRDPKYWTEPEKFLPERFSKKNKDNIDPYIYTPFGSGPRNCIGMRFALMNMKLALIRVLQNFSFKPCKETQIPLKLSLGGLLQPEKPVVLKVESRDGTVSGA

[5] = molecular target: Cytochrome P450 3A4 (Homo sapiens, UniProt P08684); assay: as §2
Chain of Cytochrome P450 3A4 (P08684 whole entry): as above

[6] = molecular target: Cytochrome P450 2C5 (Oryctolagus cuniculus, UniProt P00179); assay: Mechanism based inhibition of rabbit cytochrome P450 CYP2C5
Chain of Cytochrome P450 2C5 (P00179 whole entry): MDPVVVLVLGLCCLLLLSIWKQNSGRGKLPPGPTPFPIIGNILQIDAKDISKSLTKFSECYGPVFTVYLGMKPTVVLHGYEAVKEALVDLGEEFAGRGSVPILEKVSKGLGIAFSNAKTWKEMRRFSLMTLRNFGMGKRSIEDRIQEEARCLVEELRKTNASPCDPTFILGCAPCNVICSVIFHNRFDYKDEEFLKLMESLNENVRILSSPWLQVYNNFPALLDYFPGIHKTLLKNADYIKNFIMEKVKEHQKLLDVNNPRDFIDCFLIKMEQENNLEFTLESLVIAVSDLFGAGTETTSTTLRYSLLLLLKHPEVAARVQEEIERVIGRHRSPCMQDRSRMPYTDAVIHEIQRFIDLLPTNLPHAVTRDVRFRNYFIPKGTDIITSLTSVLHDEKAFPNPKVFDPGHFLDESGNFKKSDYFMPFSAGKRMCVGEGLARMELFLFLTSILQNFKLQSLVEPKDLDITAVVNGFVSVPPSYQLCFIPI

[7] = molecular target: T4, Cytochrome P450 2C11 (Rattus norvegicus, UniProt P08683); assay: Mechanism based inhibition of rat cytochrome P450 CYP2C11 measured by testosterone hydroxylation at positions 2-alpha and 16-alpha
T4 sequence (P08683 whole entry): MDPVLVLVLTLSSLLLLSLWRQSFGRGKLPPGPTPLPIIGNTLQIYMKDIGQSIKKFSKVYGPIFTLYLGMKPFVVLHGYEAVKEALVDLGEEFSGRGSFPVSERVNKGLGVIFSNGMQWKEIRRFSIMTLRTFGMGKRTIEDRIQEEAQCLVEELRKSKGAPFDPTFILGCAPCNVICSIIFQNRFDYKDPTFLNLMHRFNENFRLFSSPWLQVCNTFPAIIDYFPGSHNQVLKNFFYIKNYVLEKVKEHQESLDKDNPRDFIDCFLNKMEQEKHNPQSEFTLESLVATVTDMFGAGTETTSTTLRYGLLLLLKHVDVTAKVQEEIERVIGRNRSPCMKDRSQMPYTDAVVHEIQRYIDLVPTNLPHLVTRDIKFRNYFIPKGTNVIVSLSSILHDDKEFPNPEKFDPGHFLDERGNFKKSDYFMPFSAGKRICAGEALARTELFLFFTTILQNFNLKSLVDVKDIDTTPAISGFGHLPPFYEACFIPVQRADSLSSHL

[8] = molecular target: Cytochrome P450 3A2 (Rattus norvegicus, UniProt P05183); assay: Mechanism based inhibition of rat cytochrome P450 CYP3A2 measured by testosterone hydroxylation at positions 2-beta and 6-beta
Chain of Cytochrome P450 3A2 (P05183 whole entry): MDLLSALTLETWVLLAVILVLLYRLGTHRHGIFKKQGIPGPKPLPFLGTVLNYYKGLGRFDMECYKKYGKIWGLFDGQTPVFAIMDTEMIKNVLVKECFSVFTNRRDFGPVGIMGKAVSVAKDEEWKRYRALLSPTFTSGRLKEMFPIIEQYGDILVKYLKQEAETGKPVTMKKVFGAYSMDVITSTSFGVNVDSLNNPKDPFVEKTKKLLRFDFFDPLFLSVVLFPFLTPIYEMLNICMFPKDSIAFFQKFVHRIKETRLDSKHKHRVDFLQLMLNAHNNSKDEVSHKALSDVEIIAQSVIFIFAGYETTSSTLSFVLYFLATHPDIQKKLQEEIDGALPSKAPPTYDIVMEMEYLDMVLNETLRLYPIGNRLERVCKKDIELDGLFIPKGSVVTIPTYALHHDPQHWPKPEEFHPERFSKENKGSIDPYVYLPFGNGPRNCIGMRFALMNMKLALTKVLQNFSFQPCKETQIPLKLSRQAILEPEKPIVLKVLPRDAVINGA

[9] = molecular target: Cholesterol side-chain cleavage enzyme, mitochondrial (Bos taurus, UniProt P00189); assay: Mechanism based inhibition of bovine cytochrome P450 CYP11A1; conditions: cattle
Chain of Cholesterol side-chain cleavage enzyme, mitochondrial (P00189 whole entry): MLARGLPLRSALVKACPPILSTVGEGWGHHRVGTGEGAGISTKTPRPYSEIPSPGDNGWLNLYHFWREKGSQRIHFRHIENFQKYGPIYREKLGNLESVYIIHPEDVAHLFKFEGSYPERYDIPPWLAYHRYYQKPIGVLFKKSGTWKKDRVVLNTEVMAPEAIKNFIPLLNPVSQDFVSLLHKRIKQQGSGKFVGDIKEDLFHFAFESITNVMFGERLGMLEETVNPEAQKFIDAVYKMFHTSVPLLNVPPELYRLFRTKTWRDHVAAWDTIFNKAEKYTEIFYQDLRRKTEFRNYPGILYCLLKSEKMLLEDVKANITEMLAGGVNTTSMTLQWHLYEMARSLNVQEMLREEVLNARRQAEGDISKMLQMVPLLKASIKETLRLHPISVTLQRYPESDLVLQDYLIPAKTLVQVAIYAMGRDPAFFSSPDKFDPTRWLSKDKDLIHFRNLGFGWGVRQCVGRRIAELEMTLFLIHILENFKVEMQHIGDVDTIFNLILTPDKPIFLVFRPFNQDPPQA

[10] = molecular target: T5, Cytochrome P450 2B4 (Oryctolagus cuniculus, UniProt P00178); assay: (§3) Mechanism based inhibition of rabbit cytochrome P450 CYP2B4 1-Phenylethanol oxidation was used as probe activity
T5 sequence (P00178 whole entry): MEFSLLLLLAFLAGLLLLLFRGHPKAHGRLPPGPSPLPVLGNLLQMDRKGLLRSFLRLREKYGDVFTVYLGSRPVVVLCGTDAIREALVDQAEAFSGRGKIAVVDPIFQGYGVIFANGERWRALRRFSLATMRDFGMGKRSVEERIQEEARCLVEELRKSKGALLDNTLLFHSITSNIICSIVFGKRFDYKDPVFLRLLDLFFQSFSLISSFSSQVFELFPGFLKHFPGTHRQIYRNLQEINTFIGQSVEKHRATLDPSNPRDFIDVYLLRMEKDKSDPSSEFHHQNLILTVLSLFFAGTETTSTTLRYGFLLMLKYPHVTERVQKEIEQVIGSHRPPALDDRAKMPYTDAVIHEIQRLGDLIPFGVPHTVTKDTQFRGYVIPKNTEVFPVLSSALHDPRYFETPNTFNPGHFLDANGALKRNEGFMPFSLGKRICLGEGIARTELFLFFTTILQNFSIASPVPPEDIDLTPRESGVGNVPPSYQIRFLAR

[11] = molecular target: T6, CYP2B4 (Oryctolagus cuniculus, UniProt P00178); assay: as §3; conditions: rabbit, probe 1-phenylethanol (oxidation)
T6 sequence (P00178 whole entry): T5 sequence (P00178 whole entry)

[12] = molecular target: T5, Cytochrome P450 2B4; assay: Mechanism based inhibition of rabbit cytochrome P450 CYP2B4 partition ratio

Structure (SMILES): C[C@]12CC[C@H]3[C@@H](CC=C4C[C@@H](O)CC[C@@]43C)[C@@H]1CC[C@@H]2C(=O)C(Cl)Cl
mechanism based inhibition [6]: Cytochrome P450 mechanistic inhibitor: PMID 9168258

Structure (SMILES): [N]=O [NITRIC OXIDE]
mechanism based inhibition [7]: Cytochrome P450 mechanistic inhibitor: PMID 9400024 | mechanism based inhibition [8]: Cytochrome P450 mechanistic inhibitor: PMID 9400024

Structure (SMILES): CC(C)CCS[C@@H](C)[C@H]1CC[C@H]2[C@@H]3CC=C4C[C@@H](O)CC[C@]4(C)[C@H]3CC[C@]12C
mechanism based inhibition [9]: Cytochrome P450 mechanistic inhibitor: PMID 7599132

Structure (SMILES): COC(=O)c1csc2snnc12
Ki [10]: 2000 µM | kinact [11]: 0.000667 s⁻¹ | partition_ratio [12]: 2100

More lines, now with the values ahead:

Ki [1]: 57.4 µM | kinact [2]: 0.00267 s⁻¹
Structure (SMILES): COCCCC/C(=N\OCCN)c1ccc(C(F)(F)F)cc1 [FLUVOXAMINE]

kinact [3]: 0.00133 s⁻¹ | kinact [4]: 0.00233 s⁻¹ | Ki [5]: 7 µM
Structure (SMILES): CC1(C)C=Cc2c(ccc3c2OC[C@@H](c2ccc(O)cc2O)C3)O1 [GLABRIDIN]
